Patent publication US20210087548A1, “Compositions and Methods for Inducing Protein Function” (priority 2017, published 2021)

Experiments:
[1] = system: HCV genotype 1a NS3 D168Y; details: in vitro replication assay; cited from earlier work
[2] = system: HCV genotype 1a NS3 S122R; details: in vitro replication assay; cited from earlier work
human VEGFA locus = format: cell-based; details: for VEGF concentration, empty vector control cells in respective drug (average): HEK293A, 48 hrs, average of 3 independent experiments
HCV genotype 1a NS3 Wt = details: in vitro replication assay; cited from earlier work
HCV genotype 1a NS3 F43L = details: in vitro replication assay; cited from earlier work
[3] = system: HCV genotype 1a NS3 S122G; details: in vitro replication assay; cited from earlier work
HCV genotype 1a NS3 V36M = details: in vitro replication assay; cited from earlier work
HCV genotype 1a NS3 T54A = details: in vitro replication assay; cited from earlier work
HCV genotype 1a NS3 Q80K = details: in vitro replication assay; cited from earlier work

Structure (SMILES) | EC50 [1] | EC50 [2] | VEGF amounts in the culture medium (human VEGFA locus; HEK293A co-transfected with ZF-StaPL(ti)-tdRFP-KRAB and ZF-StaPL(ai)-YFP-VPR) | VEGF concentration, empty vector control cells in respective drug (average) (human VEGFA locus) | EC50 (HCV genotype 1a NS3 Wt) | EC50 (HCV genotype 1a NS3 F43L) | EC50 [3] | EC50 (HCV genotype 1a NS3 V36M) | EC50 (HCV genotype 1a NS3 T54A) | EC50 (HCV genotype 1a NS3 Q80K)
C=C[C@@H]1C[C@]1(NC(=O)[C@@H]1C[C@@H](Oc2ncc(OC)c3ccc(Cl)cc23)CN1C(=O)[C@@H](NC(=O)OC(C)(C)C)C(C)(C)C)C(=O)NS(=O)(=O)C1CC1 [ASV, asunaprevir] | 473 nM | 2.6 nM | increased | 673 pg/mL | 0.76 nM | 2.7 nM | 0.65 nM | 1.5 nM | 0.33 nM | 2.5 nM
CCC[C@H](NC(=O)[C@@H]1[C@H]2CCC[C@H]2CN1C(=O)[C@@H](NC(=O)[C@@H](NC(=O)c1cnccn1)C1CCCCC1)C(C)(C)C)C(=O)C(=O)NC1CC1 [TPV, telaprevir] |  |  |  | 930 pg/mL |  |  |  |  |  | 
